This test addresses T1, APOL1 G1 (Homo sapiens, UniProt O14791, I384M/S342G).
T1 sequence (O14791 28-398 S342G/I384M): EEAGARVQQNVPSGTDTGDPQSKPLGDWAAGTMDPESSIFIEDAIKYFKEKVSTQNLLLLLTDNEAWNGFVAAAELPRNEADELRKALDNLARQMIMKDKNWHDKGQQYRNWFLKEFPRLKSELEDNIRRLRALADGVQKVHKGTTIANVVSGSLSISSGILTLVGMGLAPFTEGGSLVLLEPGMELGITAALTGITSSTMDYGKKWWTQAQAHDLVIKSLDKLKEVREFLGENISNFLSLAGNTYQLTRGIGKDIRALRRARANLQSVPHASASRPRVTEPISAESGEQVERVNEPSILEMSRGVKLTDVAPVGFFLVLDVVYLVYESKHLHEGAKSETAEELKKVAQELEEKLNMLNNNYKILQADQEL
In words: MultiTox-Fluor Multiplex Cytotoxicity Assay, tet-inducible APOL1 G1 T-REx-HEK293 cells. The test is classed as cell-based. On the set-up: expressed in transfected cells; host or cells: T-REx HEK293, clone G1 DC3.25 (pAAVS1-Puro-APOL1 G1). The following applies: for IC90: read-out: Multi-Tox Assay IC90; for Emax: read-out: Multi-Tox Assay Max Activity (%). As to the method:
The MultiTox-Fluor Multiplex Cytotoxicity Assay is a single-reagent-addition, homogeneous, fluorescence assay that measures the number of live and dead cells simultaneously in culture wells. The assay measures cell viability and cytotoxicity by detecting two distinct protease activities. The live-cell protease activity is restricted to intact viable cells and is measured using a fluorogenic, cell-permeant peptide glycyl-phenylalanylamino fluorocoumarin (GF-AFC) substrate. The substrate enters intact cells, where it is cleaved to generate a fluorescent signal proportional to the number of living cells. […] A second, cell-impermeant, fluorogenic peptide substrate (bis-AAF-R110 Substrate) is used to measure dead-cell protease that has been released from cells that have lost membrane integrity. A ratio of dead to live cells is used to normalize data.
Briefly, the tet-inducible transgenic APOL1 T-REx-HEK293 cell lines were incubated with 50 ng/mL tet to induce APOL1 in the presence of 3-(2-(4-fluorophenyl)-1H-indol-3-yl)-N-((3S,4R)-4-hydroxy-2-oxopyrrolidin-3-yl)propenamide at […], 0.0045, 0.0015, 0.0005 µM in duplicate for 24 hours in a humidified 37°C incubator. The MultiTox reagent was added to each well and placed back in the incubator for an additional 30 minutes. The plate was read on the EnVision plate reader. A ratio of dead to live cells was used to normalize, and data was imported, analyzed and fit using Genedata Screener (Basel, Switzerland) software. Data was normalized using percent of control, no tet (100% viability), and 50 ng/mL tet treated (0% viability),and fit using Smart Fit. The reagents, methods, and complete protocol for the MultiTox assay are described below. Table 42. Reagents Used in the Multi-Tox Assay
Human embryonic kidney (HEK293) cell lines containing a tet-inducible expression system (T-REx™; Invitrogen, Carlsbad, CA) and Adeno-associated virus site 1 pAA VS1-Puro-APOL1 G0 or pAAVS1-Puro-APOL1 G1 or pAAVS1-Puro-APOL1 G2 Clones G0 DC2.13, G1 DC3.25, and G2 DC4.44 were grown in a T-225 flask at ~90% confluency in cell growth media (DMEM, 10% Tet-free FBS, 2 mM L-glutamine, 100 Units/mL penicillin-streptomycin, 5 µg/mL blasticidin S HCl, 1 µg/mL puromycin dihydrochloride). Cells were washed with DPBS and then trypsinized to dissociate from the flask. Media was used to quench the trypsin, cells were then pelleted at 200g and resuspended in fresh cell assay media (DMEM, 2% Tet-free FBS, 2 mM L-glutamine, 100 Units/mL penicillin-streptomycin). Cells were counted and diluted to 1.17 x 10^6 cells/mL. 20 µL of cells (23,400/well) were dispensed to every well of a 384-well Poly-D-Lysine coated plate using the Multidrop dispenser. The plates were then incubated at room temperature for one hour.
Tetracycline is needed to induce APOL1 expression. 1 mg/mL tet stock in water was diluted to 250 ng/mL (5X) in cell assay media. 60 µL of cell assay media (no tet control) was dispensed in columns 1 and 24, and 60 µL of 5X tet was dispensed in 384-PP-round bottom plate in columns 2 to 23 with the Multidrop dispenser.
Assay ready plates from the Global Compound Archive were ordered using template 384_APOL1Cell_DR10n2_50uM_v3. Compounds were dispensed at 200 nL in DMSO. The final top concentration was 10 µM with a 10 point 3-fold dilution in duplicate in the MultiTox assay.
20 µL were transferred from the 5X tet plate to the ARP and mixed, then 5 µL of 5X tet and the compounds were transferred to the cell plate and mixed using the Bravo. The cell plate was placed in the humidified 37°C 5% CO2 incubator for 24 hours.
The MultiTox-Fluor Multiplex Cytotoxicity Assay was performed in accordance with the manufacturer's protocol. […]

Where [1] appears, read: Multi-Tox Assay, APOL1 variant (G0/G1/G2) not stated in Table 46.
The mark [2] stands for this setting: Multi-Tox Assay, APOL1 variant not stated in Table 46.
The mark [3] stands for this setting: HEK293, Multi-Tox Assay, APOL1 variant (G0/G1/G2) of the HEK293 cells not given.
Where [4] appears, read: Multi-Tox Assay, APOL1 variant not given.

The structures appear in SMILES notation. Read-outs that look alike come from different tables or passages of the source. A value given as a limit tells only on which side of the number the result lay.

The IC90 is the point of the concentration-response curve where the effect stands at 90%. Take `C[C@H]1C[C@@]2(C[C@@H](c3cn(C)nn3)N1)OCC(C)(O)c1cc(C(F)(F)F)sc12` (stereo partly drawn) [Compound 384, (2'S,6'S,7S)-2',4-dimethyl-6'-(1-methyltriazol-4-yl)-2-(trifluoromethyl)spiro[5H-thieno[2,3-c]pyran-7,4'-piperidine]-4-ol]: the IC90 under setting [1] was under 50 nM. Further, the Emax under setting [2] amounted to 100%.

For the compound `C[C@H]1C[C@@]2(C[C@@H](c3cn(Cc4cnccn4)nn3)N1)OCC(F)(F)c1cc(Cl)sc12` [Compound 317], under setting [3], the IC90 lay in the range of 50 to 500 nM. Moreover, under setting [4], the “Multi-Tox Assay Max Activity (%)” value worked out at 98.0%.

Regarding `C[C@@H]1CC2(C[C@H](C)N1)OCCc1c2sc(C(F)(F)F)c1CO` (single isomer, unassigned) [Compound 208], the IC90 under setting [3] is 50 to 500 nM. Besides, under setting [4], the Emax worked out at 99.5%.

As to `C[C@H]1C[C@@]2(C[C@@H](c3cn(Cc4cccnn4)nn3)N1)OCC(F)(F)c1cc(Cl)sc12` [Compound 321], the IC90 under setting [3] is 50 to 500 nM.

With `Cc1cc([C@@H]2C[C@]3(C[C@H](C)N2)OCCc2cc(Cl)sc23)ccn1` (racemic) [Compound 21, (2S)-2-chloro-2'-methyl-6'-(2-methyl-4-pyridyl)spiro[4,5-dihydrothieno[2,3-c]pyran-7,4'-piperidine]], under setting [3], the IC90 is under 50 nM. Further, the Emax under setting [4] was 99.7%.

For the compound `C#C[C@@H]1C[C@]2(C[C@H](C)N1)OCCc1cc(Cl)sc12` [Compound 221, (2S,4S,6S)-2'-chloro-2-ethynyl-6-methyl-4',5'-dihydrospiro[piperidine-4,7'-thieno[2,3-c]pyran]], the IC90 under setting [3] was 50 to 500 nM. Under setting [4], the Emax is 99%.

`C[C@H]1C[C@@]2(C[C@@H](c3cn(CC4CCCCO4)nn3)N1)OC[C@@H](O)c1cc(Cl)sc12` (stereo partly shown) [Compound 227]: the IC90 under setting [3] was in the range of 50 to 500 nM. The “Multi-Tox Assay Max Activity (%)” value under setting [4] is 100.0%.

Regarding `COc1cccc(Cn2cc([C@@H]3C[C@]4(C[C@H](C)N3)OC[C@@H](O)c3cc(Cl)sc34)nn2)c1` [Compound 278], under setting [3], the IC90 was in the range of 50 to 500 nM. The “Multi-Tox Assay Max Activity (%)” value under setting [4] amounted to 100.0%.

Consider `COCC(O)Cn1cc([C@@H]2C[C@]3(C[C@H](C)N2)OC[C@@H](O)c2cc(Cl)sc23)nn1` (stereo partly shown) [Compound 226], for which, under setting [3], the IC90 lay in the range of 50 to 500 nM. Further, the “Multi-Tox Assay Max Activity (%)” value under setting [4] was found to be 100.0%.

For `CCn1cc(Cn2cc([C@@H]3C[C@]4(C[C@H](C)N3)OC[C@@H](O)c3cc(Cl)sc34)nn2)cn1` [Compound 290], under setting [3], the IC90 lay in the range of 50 to 500 nM.

Regarding `C[C@H]1C[C@@]2(C[C@@H](c3cnn4c3OCCC4)N1)OCCc1cc(Cl)sc12` (racemic) [Compound 163], the IC90 under setting [3] is over 500 nM. Further, the “Multi-Tox Assay Max Activity (%)” value under setting [4] was 92.7%.

As to `Cc1nc([C@@H]2C[C@]3(C[C@H](C)N2)OCCc2cc(Cl)sc23)oc1C` (racemic) [Compound 144], the IC90 under setting [3] is over 500 nM. The “Multi-Tox Assay Max Activity (%)” value under setting [4] worked out at 98.0%.

As for `C[C@H]1C[C@@]2(C[C@@H](c3cnn(-c4ccccc4)c3)N1)OCCc1cc(Cl)sc12` (racemic) [Compound 65], under setting [3], the IC90 was under 50 nM. Besides, the Emax under setting [4] stood at 99.5%.

Consider `C[C@H]1C[C@@]2(C[C@@H](c3cn(CC4(CO)CCOCC4)nn3)N1)OC[C@@H](O)c1cc(Cl)sc12` [Compound 240], for which, under setting [3], the IC90 was over 500 nM. Besides, the “Multi-Tox Assay Max Activity (%)” value under setting [4] was 95.0%.

Take `CCOCCn1cc([C@@H]2C[C@]3(C[C@H](C)N2)OC[C@@H](O)c2cc(Cl)sc23)nn1` [Compound 257]: the IC90 under setting [3] fell in the range of 50 to 500 nM. The “Multi-Tox Assay Max Activity (%)” value under setting [4] amounted to 101.0%.

For the compound `C[C@H]1C[C@@]2(C[C@@H](c3cn(CC4CCOC4)nn3)N1)OC[C@@H](O)c1cc(Cl)sc12` (stereo partly shown) [Compound 269], under setting [3], the IC90 lay in the range of 50 to 500 nM.

For orientation: IC50 means the point on the concentration scale where inhibition reaches its midpoint. The low end stands for inhibition by little substance, the high end for a need for much substance. For `C[C@H]1C[C@@]2(C[C@@H](c3cn(CC#N)nn3)N1)OCC(F)(F)c1cc(Cl)sc12` [Compound 369], the IC90 under setting [1] is over 500 nM. The “Multi-Tox Assay Max Activity (%)” value under setting [2] is 98.0%. The compound also came in with an IC50 (Multi-Tox Assay, IP50 = IC50 for cell proliferation, APOL1 variant not stated in Table 46) of 50 to 500 nM.

With `C[C@H]1C[C@@]2(C[C@@H](c3cccc4[nH]c(=O)oc34)N1)OCCc1cc(Cl)sc12` (racemic) [Compound 141], the IC90 under setting [3] was 50 to 500 nM. Moreover, the “Multi-Tox Assay Max Activity (%)” value under setting [4] turned out to be 96.3%.

With `Cn1cc([C@@H]2C[C@]3(C[C@H](c4ccccc4)N2)OC[C@@H](O)c2cc(Cl)sc23)nn1` [Compound 387, (2'S,4S,6'R,7S)-2-chloro-2'-(1-methyltriazol-4-yl)-6'-phenyl-spiro[4,5-dihydrothieno[2,3-c]pyran-7,4'-piperidine]-4-ol], under setting [1], the IC90 is over 500 nM. Also, the Emax under setting [2] was found to be 94%.

With `C[C@H]1C[C@@]2(C[C@@H](c3cnc(C4CC4)nc3)N1)OCCc1cc(Cl)sc12` (racemic) [Compound 52], the IC90 under setting [3] is under 50 nM. Further, under setting [4], the “Multi-Tox Assay Max Activity (%)” value worked out at 99.7%.

Consider `C[C@H]1C[C@@]2(C[C@@H](c3cnc(N(C)C)nc3)N1)OCCc1cc(Cl)sc12` (racemic) [Compound 75], for which the IC90 under setting [3] is under 50 nM. The Emax under setting [4] was found to be 100%.

Regarding `C[C@H]1C[C@@]2(C[C@@H](c3cn(CC4(F)CCOCC4)nn3)N1)OCC(F)(F)c1cc(Cl)sc12` [Compound 329], the 90% effect concentration (IC90) under setting [3] is over 500 nM. Besides, the “Multi-Tox Assay Max Activity (%)” value under setting [4] is 90.0%.

Take `CCC(O)Cn1cc([C@@H]2C[C@]3(C[C@H](C)N2)OCCc2cc(Cl)sc23)nn1` (mixture of isomers) [Compound 111]: the IC90 under setting [3] was 50 to 500 nM. The “Multi-Tox Assay Max Activity (%)” value under setting [4] came to 99.3%.

As to `C[C@H]1C[C@@]2(C[C@@H](c3cn(Cc4cocn4)nn3)N1)OCC(F)(F)c1cc(Cl)sc12` [Compound 331], under setting [3], the IC90 was 50 to 500 nM. The “Multi-Tox Assay Max Activity (%)” value under setting [4] turned out to be 98.0%.

Regarding `CC(C)C(=O)NCCn1cc([C@@H]2C[C@]3(C[C@H](C)N2)OCC(F)(F)c2cc(Cl)sc23)nn1` [Compound 345], the IC90 under setting [3] was in the range of 50 to 500 nM.

With `C[C@H]1C[C@@]2(C[C@@H](c3cccc(C(N)=O)c3)N1)OCCc1cc(Cl)sc12` (racemic) [Compound 109], the IC90 under setting [3] is 50 to 500 nM. In addition, the “Multi-Tox Assay Max Activity (%)” value under setting [4] was found to be 100.0%.

For `C[C@H]1C[C@@]2(C[C@@H](c3cn(Cc4cccc(CO)c4)nn3)N1)OC[C@@H](O)c1cc(Cl)sc12` [Compound 271], under setting [3], the IC90 was in the range of 50 to 500 nM. Moreover, under setting [4], the “Multi-Tox Assay Max Activity (%)” value is 97.0%.

`CCn1cc(Cn2cc([C@@H]3C[C@]4(C[C@H](C)N3)OCC(F)(F)c3cc(Cl)sc34)nn2)cn1` [Compound 330]: the IC90 under setting [3] fell in the range of 50 to 500 nM.

For the origin of these results see EP4810040A2, “INHIBITORS OF APOL1 AND METHODS OF USING SAME” (priority 2020, dated 2022).
